Measurements taken from US20050209451A1, “Crystalline form of cefdinir” (priority 2002, published 2005).

Key:
[1] = dissolution tests in 0.07 N HCl; format: physicochemical; conditions: after the first hour, compared with crystal A
[2] = accelerated stability tests in comparison with crystal A; format: physicochemical
Excerpt: Cefdinir in the new crystalline form was subjected to accelerated stability tests in comparison with crystal A claimed in U.S. Pat. No. 4,935,507.

solubility on prolonged dissolution treatment (final dissolved cefdinir value) ([1]; listed as cefdinir in the new crystalline form): more soluble than crystal A | solubility on prolonged dissolution treatment (final dissolved cefdinir value) ([1]; listed as product obtained in this manner): higher than that possible with crystal A | stability ([2]; compared with reference crystal A of U.S. Pat. No. 4,935,507, listed as product obtained in this manner): high stability
SMILES: C=CC1=C(C(=O)O)N2C(=O)[C@@H](NC(=O)/C(=N\O)c3csc(N)n3)[C@H]2SC1 [new crystal, cefdinir]
stability ([2]; compared with reference crystal A of U.S. Pat. No. 4,935,507): at least equal to that of the reference crystal A
